From patent US9833497B2, “Human originated EGF domain proteins and use of the same” (CHENGDU SOURCEBIO LIMITED-LIABILITY COMPANY, priority 2013, dated 2017)

Columns and labels:
Format in all cases: cell-based
[1] = test system: E. coli DH5α; test: Antibacterial activity: MIC and growth curve against E. coli DH5α in 96-well plate; conditions: minimal inhibitory concentration against E. coli DH5α; 96-well plate, 5×10^5 CFU/mL, 37° C., judged after 8 h
Outline: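 Log-phase bacteria (OD600 ~0.5) resuspended in LB at 5×10^5 CFU/mL, exposed to recombinant protein at 50, 25, 12.5 μg/mL final in triplicate, 37 °C shaking at 175 rpm. OD600 read every 30 min; MIC is lowest concentration showing no growth.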

[2] = test system: E. coli BL21; test: MIC against Gram-negative bacteria: E. coli BL21; conditions: 5×10^5 CFU/mL
Outline: (§1)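 Broth microdilution, LB medium, final inoculum 5×10^5 CFU/mL from McFarland 0.5 cultures. Recombinant human EGF domain proteins tested in two-fold steps, n=3. MIC: lowest concentration, no growth.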

[3] = test system: Pseudomonas aeruginosa; test: MIC against Gram-negative bacteria: Pseudomonas aeruginosa; conditions: 5×10^5 CFU/mL
Outline: as §1

[4] = test system: Klebsiella pneumonia; test: MIC against Gram-negative bacteria: Klebsiella pneumonia; conditions: 5×10^5 CFU/mL
Outline: as §1

[5] = test system: Enterobacter cloacae; test: MIC against Gram-negative bacteria: Enterobacter cloacae; conditions: 5×10^5 CFU/mL
Outline: as §1

[6] = test system: Aeromonas hydrophila; test: MIC against Gram-negative bacteria: Aeromonas hydrophila; conditions: 5×10^5 CFU/mL
Outline: as §1

[7] = test system: Citrobacter diversus; test: MIC against Gram-negative bacteria: Citrobacter diversus; conditions: 5×10^5 CFU/mL
Outline: as §1

[8] = test system: Moraxella catarrhalis; test: MIC against Gram-negative bacteria: Moraxella catarrhalis; conditions: 5×10^5 CFU/mL
Outline: as §1

[9] = test system: Proteus mirabilis; test: MIC against Gram-negative bacteria: Proteus mirabilis; conditions: 5×10^5 CFU/mL
Outline: as §1

[10] = test system: Proteus vulgaris; test: MIC against Gram-negative bacteria: Proteus vulgaris; conditions: 5×10^5 CFU/mL
Outline: as §1

[11] = test system: Serratia marcescens; test: MIC against Gram-negative bacteria: Serratia marcescens; conditions: 5×10^5 CFU/mL
Outline: as §1

[12] = E. coli BL21, 10 h cultivation at 37° C.
[13] = P. aeruginosa, 10 h cultivation at 37° C.
[14] = K. pneumonia, 10 h cultivation at 37° C.
[15] = E. cloacae, 10 h cultivation at 37° C.
[16] = A. hydrophila, 10 h cultivation at 37° C.
[17] = C. diversus, 10 h cultivation at 37° C.
[18] = M. catarrhalis, 10 h cultivation at 37° C.
[19] = P. mirabilis, 10 h cultivation at 37° C.
[20] = P. vulgaris, 10 h cultivation at 37° C.
[21] = S. marcescens, 10 h cultivation at 37° C.
[22] = 10 h cultivation at 37° C., two-fold serial dilution

PRT1203 (DIDECAEGRHYCRENTMCVNTPGSFMCICKTGYIRIDDYSCT; listed as Homo sapiens)
MIC [1]: 25 mg/L | MIC against E. coli BL21 ([2]; E. coli BL21, 96-well plate, 37° C., 10 h): 12.5 mg/L | MIC against P. aeruginosa ([3]; Pseudomonas aeruginosa, 96-well plate, 37° C., 10 h): 50 mg/L | MIC against K. pneumonia ([4]; Klebsiella pneumonia, 96-well plate, 37° C., 10 h): 25 mg/L | MIC against E. cloacae ([5]; Enterobacter cloacae, 96-well plate, 37° C., 10 h): 12.5 mg/L | MIC against A. hydrophila ([6]; Aeromonas hydrophila, 96-well plate, 37° C., 10 h): 50 mg/L | MIC against C. diversus ([7]; Citrobacter diversus, 96-well plate, 37° C., 10 h): 12.5 mg/L | MIC against M. catarrhalis ([8]; Moraxella catarrhalis, 96-well plate, 37° C., 10 h): 50 mg/L | MIC against P. mirabilis ([9]; Proteus mirabilis, 96-well plate, 37° C., 10 h): 12.5 mg/L | MIC against P. vulgaris ([10]; Proteus vulgaris, 96-well plate, 37° C., 10 h): 25 mg/L | MIC against S. marcescens ([11]; Serratia marcescens, 96-well plate, 37° C., 10 h): 50 mg/L

PRT841 (PEDECANGHHDCNETQNCHDQPHGYECSCKTGYTMDNMT; listed as Homo sapiens)
MIC [1]: 12.5 mg/L | MIC (μg/mL) E. coli BL21 [2, 12]: 25 µg/mL | MIC (μg/mL) P. aeruginosa [3, 13]: 12.5 µg/mL | MIC (μg/mL) K. pneumonia [4, 14]: 50 µg/mL | MIC (μg/mL) E. cloacae [5, 15]: 12.5 µg/mL | MIC (μg/mL) A. hydrophila [6, 16]: 50 µg/mL | MIC (μg/mL) C. diversus [7, 17]: 12.5 µg/mL | MIC (μg/mL) M. catarrhalis [8, 18]: 50 µg/mL | MIC (μg/mL) P. mirabilis [9, 19]: 12.5 µg/mL | MIC (μg/mL) P. vulgaris [10, 20]: 50 µg/mL | MIC (μg/mL) S. marcescens [11, 21]: 12.5 µg/mL

PRT1478 (GGSPCISQPCLHNGSCQDSIWGYTCTCSPGYEGSNCE; listed as Homo sapiens)
MIC [1]: 50 mg/L | MIC against E. coli BL21 [2, 12]: 12.5 mg/L | MIC against P. aeruginosa ([3]; Pseudomonas aeruginosa, 10 h cultivation at 37° C.): 50 mg/L | MIC against K. pneumonia ([4]; Klebsiella pneumonia, 10 h cultivation at 37° C.): 25 mg/L | MIC against E. cloacae ([5]; Enterobacter cloacae, 10 h cultivation at 37° C.): 12.5 mg/L | MIC against A. hydrophila ([6]; Aeromonas hydrophila, 10 h cultivation at 37° C.): 50 mg/L | MIC against C. diversus ([7]; Citrobacter diversus, 10 h cultivation at 37° C.): 12.5 mg/L | MIC against M. catarrhalis ([8]; Moraxella catarrhalis, 10 h cultivation at 37° C.): 25 mg/L | MIC against P. mirabilis ([9]; Proteus mirabilis, 10 h cultivation at 37° C.): 50 mg/L | MIC against P. vulgaris ([10]; Proteus vulgaris, 10 h cultivation at 37° C.): 25 mg/L | MIC against S. marcescens ([11]; Serratia marcescens, 10 h cultivation at 37° C.): 12.5 mg/L

PRT487 (SLCDLQPDFCLNDGKCDIMPGHGAICRCRVGENWWYRGKHCE; listed as Homo sapiens)
MIC [1]: 12.5 mg/L | MIC against E. coli BL21 ([2]; 96-well plate, 37° C., 10 h): 25 mg/L | MIC against P. aeruginosa ([3]; 96-well plate, 37° C., 10 h): 12.5 mg/L | MIC against K. pneumonia ([4]; 96-well plate, 37° C., 10 h): 25 mg/L | MIC against E. cloacae ([5]; 96-well plate, 37° C., 10 h): 12.5 mg/L | MIC against A. hydrophila ([6]; 96-well plate, 37° C., 10 h): 25 mg/L | MIC against C. diversus ([7]; 96-well plate, 37° C., 10 h): 12.5 mg/L | MIC against M. catarrhalis ([8]; 96-well plate, 37° C., 10 h): 25 mg/L | MIC against P. mirabilis ([9]; 96-well plate, 37° C., 10 h): 12.5 mg/L | MIC against P. vulgaris ([10]; 96-well plate, 37° C., 10 h): 50 mg/L | MIC against S. marcescens ([11]; 96-well plate, 37° C., 10 h): 12.5 mg/L

PRT1108 (DLNECNSNPCQSNGECVELSSEKQYGRITGLPSSFSYHEASGYVCICQPGFTGIHCE; listed as Homo sapiens)
MIC [1]: 50 mg/L | MIC E. coli BL21 [2, 22]: 12.5 mg/L | MIC P. aeruginosa [3, 22]: 12.5 mg/L | MIC K. pneumonia [4, 22]: 12.5 mg/L | MIC E. cloacae [5, 22]: 25 mg/L | MIC A. hydrophila [6, 22]: 25 mg/L | MIC C. diversus [7, 22]: 12.5 mg/L | MIC M. catarrhalis [8, 22]: 25 mg/L | MIC P. mirabilis [9, 22]: 12.5 mg/L | MIC P. vulgaris [10, 22]: 25 mg/L | MIC S. marcescens [11, 22]: 12.5 mg/L

PRT403 (DNDECSAQPGPCGAHGHCHNTPGSFRCECHQGFTLVSSGHGCE; listed as Homo sapiens)
MIC [1]: 12.5 mg/L | MIC [2, 12]: 25 mg/L | MIC [3, 13]: 50 mg/L | MIC [4, 14]: 25 mg/L | MIC [5, 15]: 12.5 mg/L | MIC [6, 16]: 25 mg/L | MIC [7, 17]: 50 mg/L | MIC [8, 18]: 25 mg/L | MIC [9, 19]: 12.5 mg/L | MIC [10, 20]: 25 mg/L | MIC [11, 21]: 50 mg/L
